Measurements published in US4232148A, “6-Deoxyneamines” (The Upjohn Company, priority 1979, dated 1980).
Converted amounts (≈) assume the structure as drawn. Where two headings read alike, the source gives them in different places.

Tests used:
Assay type in all cases: cell-based
[1] = tested on: P. vulgaris UC 93; experiment: standard disc plate assay, zone of inhibition; settings: 12.5 mm paper discs
Excerpt: (§1) The compounds of formulas (V, VII, IX, XI, XIV, XVI, and XIX) are active as antibacterials and can be used in various environments to erradicate or control susceptible microorganisms. Tables I and II set forth the in vitro antibacterial test results for representative compounds of the present invention. The results were obtained with a standard disc plate assay using 12.5 mm paper discs.

[2] = tested on: S. gallinarum UC 265; experiment: standard disc plate assay, zone of inhibition; settings: Salmonella enterica, read-out: Zones of Inhibition
Excerpt: as §1

[3] = tested on: K. pneumoniae UC 57; experiment: standard disc plate assay, zone of inhibition; settings: 12.5 mm paper discs
Excerpt: as §1

[4] = tested on: B. cereus UC 3145; experiment: standard disc plate assay, zone of inhibition; settings: 12.5 mm paper discs
Excerpt: as §1

[5] = tested on: S. schottmeulleri UC 126; experiment: standard disc plate assay, zone of inhibition; settings: 12.5 mm paper discs
Excerpt: as §1

[6] = tested on: E. coli UC 51; experiment: standard disc plate assay, zone of inhibition; settings: 12.5 mm paper discs
Excerpt: as §1

[7] = tested on: Ps. aeruginosa UC 95; experiment: standard disc plate assay, zone of inhibition; settings: 12.5 mm paper discs
Excerpt: as §1

[8] = tested on: S. lutea UC 130; experiment: standard disc plate assay, zone of inhibition; settings: Micrococcus luteus, UC130, read-out: Zones of Inhibition
Excerpt: as §1

[9] = tested on: S. aureus UC 80; experiment: standard disc plate assay, zone of inhibition; settings: 12.5 mm paper discs
Excerpt: as §1

[10] = tested on: B. subtilis UC 564; experiment: standard disc plate assay, zone of inhibition; settings: 12.5 mm paper discs
Excerpt: as §1

[11] = tested on: P. vulgaris UC 93; experiment: standard microplate test in BHI Agar, MIC; settings: Proteus vulgaris, UC93, 37°, 20 hours
Procedure: (§2) The compounds VII, XI, XVβ, XVα and XVI were tested in a standard microplate test in BHI (Brain Heart Infusion) Agar at a concentration of 1 mg./ml. and dilutions thereof at 37° incubation temperature. The end points are read at 20 hours. BHI Agar is supplied by Difco Laboratories, Detroit, Mich., U.S.A. and has the following compositions:
(§3) Calf brains, infusion from: 200 gm.
(§4) Beef heart, infusion from: 250 gm.
(§5) Bacto Proteose-peptone, Difco: 10 gm.
(§6) Bacto-Dextrose, Difco: 1 gm.
(§7) Disodium phosphate: 2.5 gm.

[12] = tested on: S. typhi UC 215; experiment: standard microplate test in BHI Agar, MIC; settings: Salmonella enterica, BHI Agar, 37°, 20 hours
Procedure: as §2, §3, §4, §5, §6, §7

[13] = tested on: S. schottmuelleri UC 126; experiment: standard microplate test in BHI Agar, MIC; settings: 37°, 20 hours
Procedure: as §2, §3, §4, §5, §6, §7

[14] = tested on: E. coli UC 45; experiment: standard microplate test in BHI Agar, MIC; settings: Escherichia coli, UC45, 37°, 20 hours, read-out: Minimum Inhibitory Concentration
Procedure: as §2, §3, §4, §5, §6, §7

[15] = tested on: S. pyogenes UC 152; experiment: standard microplate test in BHI Agar, MIC; settings: Streptococcus pyogenes, UC152, 20 h
Procedure: as §2, §3, §4, §5, §6, §7

[16] = tested on: E. coli UC 311; experiment: standard microplate test in BHI Agar, MIC; settings: Escherichia coli, UC311, 20 h, read-out: Minimal Inhibitory Concentration
Procedure: as §2, §3, §4, §5, §6, §7

[17] = tested on: Ps. aeruginosa UC 95; experiment: standard microplate test in BHI Agar, MIC; settings: Pseudomonas aeruginosa, UC95, 20 h
Procedure: as §2, §3, §4, §5, §6, §7

[18] = tested on: S. pneumoniae I UC 41; experiment: standard microplate test in BHI Agar, MIC; settings: Streptococcus pneumoniae, UC41, 37°, 20 hours, read-out: Minimum Inhibitory Concentration
Procedure: as §2, §3, §4, §5, §6, §7

[19] = tested on: S. flexneri UC 143; experiment: standard microplate test in BHI Agar, MIC; settings: Shigella flexneri, UC143, 37°, 20 hours
Procedure: as §2, §3, §4, §5, §6, §7

[20] = tested on: P. mirabilis UC 6671; experiment: standard microplate test in BHI Agar, MIC; settings: Proteus mirabilis, UC6671, 37°, 20 hours
Procedure: as §2, §3, §4, §5, §6, §7

[21] = tested on: K. pneumoniae UC 58; experiment: standard microplate test in BHI Agar, MIC; settings: Klebsiella pneumoniae, UC58, 20 h
Procedure: as §2, §3, §4, §5, §6, §7

[22] = tested on: S. marcescens UC 131; experiment: standard microplate test in BHI Agar, MIC; settings: Serratia marcescens, UC131, 37°, 20 hours
Procedure: as §2, §3, §4, §5, §6, §7

[23] = tested on: S. aureus UC 76; experiment: standard microplate test in BHI Agar, MIC; settings: Staphylococcus aureus, UC76, 20 h
Procedure: as §2, §3, §4, §5, §6, §7

[24] = tested on: P. morganii UC 3186; experiment: standard microplate test in BHI Agar, MIC; settings: Morganella morganii, UC3186, 20 h
Procedure: as §2, §3, §4, §5, §6, §7

[25] = tested on: D. pneumoniae UC 41; experiment: standard microplate test in BHI Agar, MIC; settings: Streptococcus pneumoniae, UC41, 37°, 20 hours, read-out: Minimal Inhibitory Concentration
Procedure: as §2, §3, §4, §5, §6, §7

[26] = tested on: S. faecalis UC 694; experiment: standard microplate test in BHI Agar, MIC; settings: Enterococcus faecalis, UC694, 20 h
Procedure: as §2, §3, §4, §5, §6, §7

[27] = read-out: Minimal Inhibitory Concentration
[28] = read-out: Minimum Inhibitory Concentration

NC[C@H]1O[C@H](O[C@H]2[C@H](O)[C@@H](O)[C@H](N)C[C@@H]2N)[C@H](N)[C@@H](O)[C@@H]1O [Neamine]
Zones of Inhibition ([1]; 0.1 mg/ml): 15 mm
Zones of Inhibition ([1]; 1 mg/ml): 28 mm
zone of inhibition at 100 µg/mL ([1]; Proteus vulgaris, UC93, read-out: Zones of Inhibition, 0.1 mg/ml): 18 mm
zone of inhibition at 1000 µg/mL ([1]; Proteus vulgaris, UC93, read-out: Zones of Inhibition, 1 mg/ml): 27 mm
zone of inhibition at 100 µg/mL [2]: 19 mm
zone of inhibition at 1000 µg/mL [2]: 29 mm
Zones of Inhibition ([3]; 0.1 mg/ml): 26 mm
Zones of Inhibition ([3]; 1 mg/ml): 32 mm
zone of inhibition at 100 µg/mL ([3]; Klebsiella pneumoniae, UC57, read-out: Zones of Inhibition, 0.1 mg/ml): 27 mm
zone of inhibition at 1000 µg/mL ([3]; Klebsiella pneumoniae, UC57, read-out: Zones of Inhibition, 1 mg/ml): 34 mm
Zones of Inhibition ([4]; 1 mg/ml): 23 mm
zone of inhibition at 100 µg/mL ([4]; Bacillus cereus, UC3145, read-out: Zones of Inhibition, 0.1 mg/ml): 15 mm
zone of inhibition at 1000 µg/mL ([4]; Bacillus cereus, UC3145, read-out: Zones of Inhibition, 1 mg/ml): 24 mm
Zones of Inhibition ([5]; 0.1 mg/ml): 15 mm
zone of inhibition at 100 µg/mL ([5]; 0.1 mg/ml, read-out: Zones of Inhibition): 16 mm
Zones of Inhibition ([5]; 1 mg/ml): 23 mm
zone of inhibition at 1000 µg/mL ([5]; 1 mg/ml, read-out: Zones of Inhibition): 24 mm
Zones of Inhibition ([6]; 0.1 mg/ml): 18 mm
Zones of Inhibition ([6]; 1 mg/ml): 25 mm
zone of inhibition at 100 µg/mL ([6]; Escherichia coli, UC51, read-out: Zones of Inhibition, 0.1 mg/ml): 19 mm
zone of inhibition at 1000 µg/mL ([6]; Escherichia coli, UC51, read-out: Zones of Inhibition, 1 mg/ml): 27 mm
Zones of Inhibition ([7]; 1 mg/ml): 18 mm
zone of inhibition at 1000 µg/mL ([7]; Pseudomonas aeruginosa, UC95, read-out: Zones of Inhibition, 1 mg/ml): 17 mm
zone of inhibition at 1000 µg/mL [8]: 17 mm
Zones of Inhibition ([9]; 0.1 mg/ml): 18 mm
Zones of Inhibition ([9]; 1 mg/ml): 26 mm
zone of inhibition at 100 µg/mL ([9]; Staphylococcus aureus, UC80, read-out: Zones of Inhibition, 0.1 mg/ml): 20 mm
zone of inhibition at 1000 µg/mL ([9]; Staphylococcus aureus, UC80, read-out: Zones of Inhibition, 1 mg/ml): 29 mm
Zones of Inhibition ([10]; 0.1 mg/ml): 28 mm
Zones of Inhibition ([10]; 1 mg/ml): 37 mm
zone of inhibition at 100 µg/mL ([10]; Bacillus subtilis, UC564, read-out: Zones of Inhibition, 0.1 mg/ml): 30 mm
zone of inhibition at 1000 µg/mL ([10]; Bacillus subtilis, UC564, read-out: Zones of Inhibition, 1 mg/ml): 39 mm
MIC [11, 27]: 62.5 µg/mL (≈ 194 µM)
MIC [11, 28]: 62.5 µg/mL (≈ 194 µM)
MIC [12, 27]: 31.2 µg/mL (≈ 96.8 µM)
MIC [12, 28]: 15.6 µg/mL (≈ 48.4 µM)
MIC [13, 27]: 15.6 µg/mL (≈ 48.4 µM)
MIC [13, 28]: 31.2 µg/mL (≈ 96.8 µM)
MIC [14]: 62.5 µg/mL (≈ 194 µM)
MIC [15, 27]: 7.8 µg/mL (≈ 24.2 µM)
MIC [15, 28]: 7.8 µg/mL (≈ 24.2 µM)
MIC [16]: 125 µg/mL (≈ 388 µM)
MIC [17, 27]: > 500 µg/mL
MIC [17, 28]: > 500 µg/mL
MIC [18]: 62.5 µg/mL (≈ 194 µM)
MIC [19, 27]: 125 µg/mL (≈ 388 µM)
MIC [19, 28]: 62.5 µg/mL (≈ 194 µM)
MIC [20, 27]: 250 µg/mL (≈ 776 µM)
MIC [20, 28]: 62.5 µg/mL (≈ 194 µM)
MIC [21, 27]: 7.8 µg/mL (≈ 24.2 µM)
MIC [21, 28]: 15.6 µg/mL (≈ 48.4 µM)
MIC [22, 27]: 250 µg/mL (≈ 776 µM)
MIC [22, 28]: 250 µg/mL (≈ 776 µM)
MIC [23, 27]: 7.8 µg/mL (≈ 24.2 µM)
MIC [23, 28]: 3.9 µg/mL (≈ 12.1 µM)
MIC [24, 27]: 31.2 µg/mL (≈ 96.8 µM)
MIC [24, 28]: 62.5 µg/mL (≈ 194 µM)
MIC [25]: 62.5 µg/mL (≈ 194 µM)
MIC [26, 27]: > 500 µg/mL
MIC [26, 28]: > 500 µg/mL
